Where two headings read alike, the source gives them in different places.
Legend:
[1] = Human Plasma Protein Stability (% Remaining); type: in vitro ADME; conditions: average
[2] = Rat Plasma Protein Stability (% Remaining); type: in vitro ADME; conditions: average
[3] = molecular target: T1, human recombinant COX2 (hCOX2) (UniProt P35354); assay: LCMS-based COX2 enzymatic inhibition assay (PGE2 quantification); type: biochemical; design: COX2 2 minutes pge2/pge2d4 area ratio Avg; other: 2 minutes; readout pge2/pge2d4 area ratio; average; COX2 2 minutes pge2/pge2d4 area ratio Avg; LLE; average LLE; COX2 2 minutes pge2 area (counts) Avg; readout pge2 area (counts); other: 2 min; "ovine COX2 (oCOX2), human recombinant COX2 (hCOX2)"; conditions: for COX2 2 minutes pge2/pge2d4 area ratio Avg. LLE / COX2 2 minutes pge2 area (counts) Avg. LLE / COX2 10 minutes pge2 area (counts) Avg. LLE / COX2 30 minutes pge2 area (counts) Avg. LLE: average LLE; for IC50: average
T1 sequence (P35354 1-604): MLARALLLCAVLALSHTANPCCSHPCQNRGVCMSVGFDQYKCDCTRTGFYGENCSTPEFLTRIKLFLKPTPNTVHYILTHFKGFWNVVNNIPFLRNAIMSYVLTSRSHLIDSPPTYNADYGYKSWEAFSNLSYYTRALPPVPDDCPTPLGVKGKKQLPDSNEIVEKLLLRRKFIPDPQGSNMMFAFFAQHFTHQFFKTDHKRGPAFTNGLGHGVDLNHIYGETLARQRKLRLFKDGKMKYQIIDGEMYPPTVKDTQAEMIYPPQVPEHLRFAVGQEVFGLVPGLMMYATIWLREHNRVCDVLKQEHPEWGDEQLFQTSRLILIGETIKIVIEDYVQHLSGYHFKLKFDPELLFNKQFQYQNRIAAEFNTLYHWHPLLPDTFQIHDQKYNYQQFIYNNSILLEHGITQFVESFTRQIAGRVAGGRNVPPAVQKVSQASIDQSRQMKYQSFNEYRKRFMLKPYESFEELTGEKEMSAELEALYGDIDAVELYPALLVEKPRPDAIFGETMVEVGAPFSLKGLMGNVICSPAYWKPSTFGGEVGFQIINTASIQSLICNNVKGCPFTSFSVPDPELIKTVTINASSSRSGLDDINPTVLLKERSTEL
In short: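 Ovine COX-1 (0.1 μg) or human recombinant COX2 (0.2 μg) in 100 mM Tris.HCl pH 8.0 with hematin and epinephrine, preincubated with inhibitor 10 min at 37 °C. Reaction with 5 μM arachidonic acid stopped after 2 min with HCl; PGE2 quantified by LC-MS-MS. IC50 from 12 concentrations in triplicate.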

[4] = human plasma protein binding (PPB) assay; type: in vitro ADME; conditions: average, read-out: Human Plasma Protein Binding % Bound Avg (converted)
Method: We have adapted a previously reported cyclooxygenase enzymatic assay utilizing LCMS quantification of PGE2 as the product of COX-1 and COX2 catalyzed conversion of arachidonic acid to evaluate the binding properties of newly synthesized ligands [Cao, 2011]. These optimized and miniaturized (384-well plates) LCMS-based COX-1 and COX2 enzymatic assays enabled us to quickly evaluate newly synthesized ligands for COX2 binding affinity and selectivity vs COX-1. Using a shorter ligand-enzyme incubation time in the LCMS assay (2 minutes vs 10 minutes) also permitted us to prioritize ligands with faster binding kinetics. Considering the relatively slow on-rate kinetics of known coxibs, due to their 3-step binding mechanism [Marnett, 2009], we believe that optimizing this critical parameter will be key to the successful development of a COX2 PET tracer. Using these enzymatic assays, we have evaluated>200 newly synthesized ligands against COX2 and >20 ligands against COX-1. Another critical property necessary for a good PET radiotracer is to have low non-specific binding (NSB) to increase the free fraction and maximize the signal to noise ratio. This property can be evaluated using in-vitro protein binding assays, and we have now evaluated>50 newly synthesized ligands in mouse, rat and human plasma protein binding (PPB) assays as well as >15 ligands in a mouse brain protein binding (BPB) assay.

[5] = 2 minutes, readout pge2/pge2d4 area ratio
[6] = 2 minutes, readout pge2/pge2d4 area ratio, read-out: COX2 2 minutes pge2/pge2d4 area ratio Avg. IC50
[7] = 2 minutes, readout pge2 area (counts)
[8] = 2 minutes, readout pge2 area (counts), read-out: COX2 2 minutes pge2 area (counts) Avg. IC50
[9] = 10 minutes, readout pge2 area (counts)
[10] = 10 minutes, readout pge2 area (counts), read-out: COX2 10 minutes pge2 area (counts) Avg. IC50
[11] = 30 minutes, readout pge2 area (counts)
[12] = 30 minutes, readout pge2 area (counts), read-out: COX2 30 minutes pge2 area (counts) Avg. IC50

Row | Human Plasma Protein Stability % Remaining Avg [1] | Rat Plasma Protein Stability % Remaining Avg [2] | COX2 2 minutes pge2/pge2d4 area ratio Avg. LLE [3, 5] | IC50 [3, 6] | COX2 2 minutes pge2 area (counts) Avg. LLE [3, 7] | IC50 [3, 8] | fraction unbound [4] | COX2 10 minutes pge2 area (counts) Avg. LLE [3, 9] | IC50 [3, 10] | COX2 30 minutes pge2 area (counts) Avg. LLE [3, 11] | IC50 [3, 12] | Compound
1 | 102.5% | 105.1% | 4.86 | 21.2 nM | 4.974 | 15.5 nM | 0.071 |  |  |  |  | CS(=O)(=O)c1ccc(-c2cccc(NCc3ccoc3)n2)cc1 [Compound 47, N-(furan-3-ylmethyl)-6-(4-(methylsulfonyl)phenyl)pyridin-2-amine]
2 | 100% | 102.8% |  | 17.5 nM |  | 18.2 nM | 0.091 |  |  |  |  | CS(=O)(=O)c1ccc(-c2cccc(NCc3ccco3)n2)cc1 [Compound 36]
3 | 118% | 104% | 5.172 | 8.81 nM | 5.203 | 9.37 nM | 0.02 |  |  |  |  | CS(=O)(=O)c1ccc(-c2cc(F)cc(NCc3ccco3)n2)cc1 [Compound 14]
4 | 121% | 97.9% | 4.9079 | 9.12 nM | 4.932 | 8.71 nM | 0.049 |  |  |  |  | CS(=O)(=O)c1ccc(-c2cccc(OCc3ccoc3)n2)cc1 [Compound 16]
5 | 100% | 115% | 4.826 | 16.4 nM | 4.752 | 18.3 nM | 0.027 |  |  |  |  | CS(=O)(=O)c1ccc(-c2cc(F)cc(NCc3ccoc3)n2)cc1 [Compound 34]
6 | 99% | 100% | 4.818 | 10.9 nM | 4.716 | 13.9 nM | 0.026 |  |  |  |  | Cc1occc1CNc1cccc(-c2ccc(S(C)(=O)=O)cc2)n1 [Compound 21]
7 | 95% | 100% | 4.653 | 9.62 nM | 4.644 | 9.92 nM | 0.022 |  |  |  |  | COc1ccc(NCc2cccs2)nc1-c1ccc(S(C)(=O)=O)cc1 [Compound 17]
8 |  |  | 5.067 | 76 nM | 5.168 | 61.6 nM |  | 6.195 | 5.57 nM | 6.4321 | 2.74 nM | CS(=O)(=O)c1ccc(-c2cncc(NCc3cccs3)n2)cc1 [Compound 98]
9 | 100% | 128% | 4.757 | 16.4 nM | 4.796 | 15.1 nM | 0.029 |  |  |  |  | CS(=O)(=O)c1ccc(-c2ccc(F)c(NCc3ccoc3)n2)cc1 [Compound 33]
10 | 94% | 100% | 4.864 | 3.27 nM | 4.806 | 3.66 nM | 0.002 |  |  |  |  | CS(=O)(=O)c1ccc(-c2cccc(OCc3cccs3)n2)cc1 [Compound 1, 2-(4-methanesulfonylphenyl)-6-[(thiophen-2-yl)methoxy]pyridine]
11 | 100% | 105.1% |  | 11.7 nM |  | 10.3 nM | 0.019 |  |  |  |  | CS(=O)(=O)c1ccc(-c2cccc(NCc3cccs3)n2)cc1 [Compound 24]

Continued, compound first:

Row | Compound | Human Plasma Protein Stability % Remaining Avg [1] | Rat Plasma Protein Stability % Remaining Avg [2] | COX2 2 minutes pge2/pge2d4 area ratio Avg. LLE [3, 5] | IC50 [3, 6] | COX2 2 minutes pge2 area (counts) Avg. LLE [3, 7] | IC50 [3, 8] | fraction unbound [4] | COX2 10 minutes pge2 area (counts) Avg. LLE [3, 9] | IC50 [3, 10] | COX2 30 minutes pge2 area (counts) Avg. LLE [3, 11] | IC50 [3, 12]
12 | CS(=O)(=O)c1ccc(-c2cccc(/C=C\c3ccoc3)n2)cc1 [Compound 35, 2-[(Z)-2-(furan-3-yl)ethenyl]-6-(4-methanesulfonylphenyl)pyr] | 97% | 94.1% | 4.232 | 17.2 nM | 4.214 | 17.4 nM | 0.024 |  |  |  | 
13 | CS(=O)(=O)c1ccc(-c2cncc(OCc3cccs3)n2)cc1 [Compound 19] | 92.4% | 91.1% | 5.643 | 10.2 nM | 5.681 | 9.01 nM | 0.015 | 6.3861 | 1.5 nM |  | 
14 | COc1ncc(NCc2cccs2)nc1-c1ccc(S(C)(=O)=O)cc1 [Compound 29] | 93.9% | 114.5% | 5.399 | 14.9 nM | 5.474 | 14.5 nM | 0.016 |  |  |  | 
15 | COc1ncc(NCc2ccoc2)nc1-c1ccc(S(C)(=O)=O)cc1 [Compound 44] |  | 104.6% | 5.722 | 19.6 nM | 5.725 | 20.1 nM |  |  |  |  | 
16 | COc1cc(NCc2cccs2)nc(-c2ccc(S(C)(=O)=O)cc2)c1 [Compound 50] |  |  | 4.261 | 22.8 nM | 4.341 | 20 nM |  | 4.996 | 5 nM | 5.9869 | 0.416 nM
17 | CS(=O)(=O)c1ccc(-c2nc(NCc3cccs3)cc3ccoc23)cc1 [Compound 2] | 99% | 98% | 3.981 | 5.13 nM | 3.975 | 5.45 nM | 0.003 |  |  |  | 
18 | CS(=O)(=O)c1ccc(-c2ccc(F)c(NCc3ccco3)n2)cc1 [Compound 15] | 108% | 127% | 5.1257 | 8.91 nM | 5.098 | 9.62 nM | 0.022 |  |  |  | 
19 | CS(=O)(=O)c1ccc(-c2cccc(NCc3ccc(F)o3)n2)cc1 [Compound 23] | 97% | 104% | 4.592 | 11.4 nM | 4.619 | 10.7 nM | 0.028 |  |  |  | 

Source: US20220348590A1, “CYCLOOXYGENASE-2 INHIBITORS AND USES THEREOF” (The Board Institute, Inc., priority 2019, published 2022)
